{"source": "paper PMC8124668", "about": "“Preclinical Assessment Addressing Intravenous Administration of a [^68Ga]Ga-PSMA-617 Microemulsion: Acute In Vivo Toxicity, Tolerability, PET Imaging, and Biodistribution” (Molecules, 2021)", "origin": "cited, not measured here", "test_system": "male rats", "set-up": "method as in PMID 28283702", "settings": "once weekly IV bolus on days 1, 8, 15 and 22, at 400 mg/kg"}
{"smiles": "O=C(O)CCC(NC(=O)NC(CCCCNC(=O)C(Cc1ccc2ccccc2c1)NC(=O)C1CCC(CNC(=O)CN2CCN(CC(=O)O)CCN(CC(=O)O)CCN(CC(=O)O)CC2)CC1)C(=O)O)C(=O)O", "note": "(stereo not shown) [PSMA-617, 2-[3-(1-Carboxy-5-{3-naphthalen-2-yl-2-[(4-{[2-(4,7,10-tris-carboxymethyl-1,4,7,10-tetraaza-cyclododec-1-yl)-acetylamino]-methyl}-cyclohexanecarbonyl)-amino]-propionylamino}-pentyl)-ureido]-pentanedioic acid]", "values": [{"measurement": "local or systemic intolerance reactions", "result": "No signs of local or systemic intolerance reactions"}]}
